Values after ≈ are worked out from the molar mass of the structure shown.
Columns and labels:
[1] = Determination on hygroscopicity (80% RH, 24 h); assay type: physicochemical
Description: Test process: a weighing bottle was taken, put into a dryer with 80% RH saturated solution, balanced for 24 h, taken out, and weighed as m1; a sample was taken, spread into the weighing bottle with a thickness about 1 mm, and weighed as m2; and then the weighing bottle was put into the dryer with 80% RH saturated solution, balanced for 24 h, and weighed as m3.
Calculation formula: hygroscopicity=(m3−m2)/(m2−m1)*100%

[2] = Determination on solubility in water (HPLC, stirred 24 hr); assay type: physicochemical; conditions: for solubility: in water, stirred for 24 hr; for approximate solubility: water needed to dissolve 1 g: per 1 g of sample, converted from solubility
Description: 1. chromatographic column: Agilent Pursuit C18, 3um, 4.6*150 mm
2. Mobile phase: 0.1% trifluoroacetic acid: acetonitrile=20: 80, flow rate: 1.0 mL/min, wavelength: 215 nm, column temperature: 35° C., injection volume: 10 μl;
3. Mobile phase preparation process:
1.0 mL of trifluoroacetic acid was added into 1000 mL of water, mixed well, and ultrasonicated;
4. Sample preparation process
About 10 mg of the sample to be tested was weighed and added into 1 mL of water, stirred for 24 hr, and centrifuged. The supernatant was taken as the sample for testing solubility. 10 mg of demethyl tramadol palmitate with the same structure as the sample to be tested was weighed and placed in a 100 mL measuring flask, 80% aqueous methanol solution was added to dissolve and dilute the demethyl tramadol palmitate to the scale, which was used as the corresponding reference solution.

Compound | hygroscopicity [1] [%] | solubility [2] | approximate solubility: water needed to dissolve 1 g [2] [mL]
CN(C)CC1CCCCC1(O)c1cccc(O)c1 (racemic) [Example 2, Demethyl Tramadol Palmitate Monosalt] | 6.3 | 0.7 mg/mL | 1428.6
CN(C)C[C@H]1CCCC[C@]1(O)c1cccc(O)c1 (racemic) [racemic demethyl tramadol free base, (±)-(1RS, 2RS)-2-[(N,N dimethylamino)methylene]-1-hydroxy-cyclohexyl phenol] |  | 1.4 mg/mL (≈ 5.61 mM) | 714.3
CN(C)C[C@H]1CCCC[C@]1(O)c1cccc(O)c1.Cl (racemic) [racemic demethyl tramadol hydrochloride] |  | higher than 200 mg/mL | ≤ 5
racemic demethyl tramadol acetate |  | higher than 50 mg/mL | ≤ 20

Source: patent publication US20230265044A1, “SALT OF DEMETHYL TRAMADOL AND USE THEREOF” (priority 2020, published 2023)
